Results as given in patent US9963506B2, “Human-mouse chimeric anti-CD147 antibody with non-fucosylated glycosylation” (Fourth Military Medical University, priority 2015, dated 2018).

Columns and labels:
[1] = system: NCI-H520 cells; assay: Wound healing (migration) assay; type: cell-based, human
Protocol: (§1) Wound healing and transwell invasion assays were performed. For wound healing assay, 2×10^4 cells were plated in 24-well plate to form cell monolayer and allowed to reach confluence for 2 days. A wound was made in the monolayer (at time 0) by a 200 μl tip. After wash of the monolayer, Metuzumab solution was dispensed at 0.1 μg/ml, 1 μg/ml and 10 μg/ml, respectively, at 200 μl/well into each well. Saline was used as control. The distance between two sides of an open wound was measured under a CX71 microscope (Olympus). The distance between the two sides of the wound after 20-72 h of migration was divided by the distance at time 0 and represented on a graph. The experiments were performed in triplicates, the results were shown as mean±SD.

[2] = system: A549 cells; assay: Wound healing (migration) assay; type: cell-based, human
Protocol: as §1

[3] = system: NCI-H446 cells; assay: ADCC assay (LDH release), human spleen effector cells; type: cell-based; details: NCI-H446 target cells
Protocol: (§2) NCI-H520, A549 and NCI-H446 cells (1×10^4 per well) were incubated with Metuzumab or cHAb18 mAb for 30 min at 37° C. Effector cells (Spleen cells) were added at the ratio of effector cells to […] (E/T) 50:1 for 24 hours at 37° C. in CO2 incubator. After centrifugation, supernatants were harvested and lactate dehydrogenase (LDH) activity were measured. Data represent mean±SD of five independent experiments.
(§3) The ADCC activity was determined by measuring lactate dehydrogenase (LDH) activity in the medium using a Cytotoxicity Detection Kit (LDH; Roche) according to the manufacturer's protocols.
(§4) In vitro ADCC assays were performed with human lung cancer cell lines (NCI-H520, A549 and NCI-H446) as target cells, and human spleen cells were used as effector cells. The target cells (1×10^4 per well) were washed with PBS and pre-incubated with antibodies solution for 30 min at 37° C. in serum-free RPMI-1640 supplemented with 0.1% BSA. The antibody solution (Metuzumab or the chimeric antibody cHAb18 mAb) that has been adjusted to a concentration of 0.001, 0.01, 0.1, 1 or 10 μg/ml was dispensed at 100 μl/well into each well that contained the target cells, Subsequently, 100 μl of the effector cells at an effector/target ratio of 50:1 was dispensed into each well, and incubated at in a carbon dioxide incubator. The cells were incubated for an additional 24 h prior to the detection of cell death by measuring lactate dehydrogenase (LDH) activity in the medium using a Cytotoxicity Detection Kit (LDH; Roche) according to the manufacturer's protocols. The ADCC-inducing activity was calculated to the following formula: Cytotoxicity (expressed as a percentage)=(experimental cell lysis−spontaneous effector lysis−spontaneous target lysis)/(maximum target lysis−spontaneous target lysis)×100%. All assays were performed in triplicate.

[4] = system: NCI-H520 cells; assay: as above; type: cell-based; details: NCI-H520 target cells
Protocol: as §2, §3, §4

[5] = system: A549 cells; assay: as above; type: cell-based; details: A549 target cells
Protocol: as §2, §3, §4

[6] = system: A549 cells; assay: Subcutaneous xenograft model, tumor growth inhibition; type: in vivo, SCID mice; details: tail vein
Protocol: Mice injected with A549 cells subcutaneously in the right dorsal flank were treated by intravenous saline; 2 mg/kg Cisplatin and 100 mg/kg Gemcitabine; Metuzumab infusion at 2 mg/kg, 10 mg/kg and 30 mg/kg; combination of 10 mg/kg Metuzumab with 2 mg/kg Cisplatin and 100 mg/kg Gemcitabine; wherein the antibodies were injected twice weekly for 3 week consecutively, while the chemotherapeutic agents were injected once a week for 3 weeks consecutively. The tumors were measured twice a week.
Animals were housed in specific pathogen-free (SPF) condition. For the localized subcutaneous xenograft mouse model, 1×10^6 NCI-H520 or A549 cells, suspended in Hank's balanced salt solution were implanted in the right dorsal flank of male SCID mice (6-8 week old). When tumors reached a mean volume of 100 mm^3, mice were randomized into treatment cohorts (n=10 mice per group). Mice were grouped for different treatments, including Metuzumab treatment groups treated with 2 mg/kg, 10 mg/kg and 30 mg/kg Metuzumab; chemistry treatment group treated with 2 mg/kg Cisplatin and 100 mg/kg Gemcitabine; combination treatment group treated with 10 mg/kg Metuzumab with 2 mg/kg Cisplatin and 100 mg/kg Gemcitabine, or saline (control group) via tail vein, respectively. Antibody injections were administered twice weekly, for 3 weeks consecutively; chemotherapeutic agents were administered once a week, for 3 weeks consecutively. Tumor size was measured twice each week for the duration of the study using calipers. Tumor volumes were determined using the following formula: […]. Antitumor activity was assessed by calculating inhibition ratio of tumor volumes (IRTV) based on medians by using following formula: [1−average (Ttreatment (day x)−Ttreatment (day 0))/average (Tcontrol (day x)−Tcontrol (day 0))]×100%.

## Metuzumab: human-mouse chimeric anti-CD147 IgG1, heavy chain SEQ ID NO: 4, light chain SEQ ID NO: 3, Mannose-5 glycoform lacking fucose and xylose
[1]; NCI-H520, 0.1 μg/ml
  migration activity decrease compared to control group: 20.2%
[1]; NCI-H520, 0.1 μg/ml (saline 18.8 μm/hr)
  migration rate: 15.0 μm/hr
[1]; NCI-H520, 1 μg/ml
  migration activity decrease compared to control group: 34.0%
[1]; NCI-H520, 1 μg/ml (saline 18.8 μm/hr)
  migration rate: 12.4 μm/hr
[1]; NCI-H520, 10 μg/ml
  migration activity decrease compared to control group: 44.1%
[1]; NCI-H520, 10 μg/ml (saline 18.8 μm/hr)
  migration rate: 10.5 μm/hr
[2]; A549, 0.1 μg/ml
  migration activity repressed compared to control group: 24.4%
[2]; A549, 0.1 μg/ml (control 20.1 μm/hr)
  migration rate: 15.2 μm/hr
[2]; A549, 1 μg/ml
  migration activity repressed compared to control group: 38.3%
[2]; A549, 1 μg/ml (control 20.1 μm/hr)
  migration rate: 12.4 μm/hr
[2]; A549, 10 μg/ml
  migration activity repressed compared to control group: 50%
[2]; A549, 10 μg/ml (control 20.1 μm/hr)
  migration rate: 10.1 μm/hr
[3]
  ADCC-inducing activity increase over cHAb18 mAb: about 10 folds
[3]; effector/target 50:1, 24 h
  EC50% (ADCC): 0.11 µg/mL
[4]
  ADCC-inducing activity increase over cHAb18 mAb: about 10 folds
[4]; effector/target 50:1, 24 h
  EC50% (ADCC): 0.04 µg/mL
[5]
  ADCC-inducing activity increase over cHAb18 mAb: about 10 folds
[5]; effector/target 50:1, 24 h
  EC50% (ADCC): 0.06 µg/mL
[6]; 2 mg/kg twice weekly for 3 weeks
  tumor volume inhibition rate: 14.78%
[6]; 10 mg/kg twice weekly for 3 weeks
  tumor volume inhibition rate: 26.52%
[6]; 30 mg/kg twice weekly for 3 weeks
  tumor volume inhibition rate: 50.64%
